Measurements taken from patent US20220369639A1, “Fungicide Mixtures” (LANXESS Deutschland GmbH, priority 2019, published 2022).
Where two headings read alike, the source gives them in different places. Blank lines part the entries; values can stand above or below the compound they belong to.

Experiments:
Type in all cases: cell-based
Fusarium solani = experiment: Minimum Inhibitory Concentration (MIC) on nutrient agar petri dishes
From the text: (§1) The term synergism is used when the action of a combination of antimicrobial substances is being evaluated.
(§2) The synergism found for the mixtures according to the invention can be determined via the following mathematical mathematical formula (cf. F. C. Kull, P. C. Elisman, H. D.
(§3) Qa=amount of component A in the active substance mixture which achieves the desired effect, i. e. no microbial growth,
(§4) QA=amount of component A which, when used alone, suppresses the growth of the microorganisms,
(§5) Qb=amount of component B in the active substance mixture which suppresses the growth of the microorganisms,
(§6) QB=amount of component B which, when used alone, suppresses the growth of the microorganisms
(§7) If the sum of the ratios for a mixture Qa/QA+Qb/QB=1, additivity is indicated; if it is <1, synergism has occurred; a value of >1 is indicative of antagonism.
(§8) To determine the antimicrobial efficacy and synergy of active ingredients mixtures, the Minimum Inhibitory Concentration (MIC) of the active substances and their respective combinations were determined. The Minimum Inhibitory
(§9) Concentration of a given antimicrobial compound or mixture is the lowest concentration expressed in […] (ppm) that under defined in vitro conditions inhibits the growth of a given micro-organism (for example bacteria, mould fungi, yeasts). The growth of the microorganisms is observed on petri dishes containing a defined nutrient agar. In the case of fungi, typical strains according to this test design for example would be species like those as indicated in tables 1a) and 1b)

Aspergillus niger = experiment: as above
From the text: as §1, §2, §3, §4, §5, §6, §7, §8, §9

[1] = tested on: Fungi Mix composed of the standard ASTM G 21-09 species; experiment: Gypsum board mould resistance, ASTM G 21-09 (core protection); conditions: for Observed growth rating, Fungi Mix: facing papers not treated, 4 weeks at 28-30° C.
From the text: The fungicide mixtures as of the present invention and of the comparison example to be tested were made as follows: The respective actives were mixed in their respective weight ratio (see table 2) together with water and 1 wt. % dispersant Tristyrylphenol ethoxylate (in form of Soprophor® S 25), as thickener 0.1 wt. % of Xanthan gum and 1 wt. % wetting agent non-ionic EO/PO-Copolymer (in form of Pluronic 127 F), where the wt. % are based on the entire mixture and were homogenized with a high speed mixer (IKA Ultra Turrax Labor Dispergator) to give an aqueous suspension having a viscosity measured in accordance with CIPAC 192 method of 500-600 mPas and a particle size of the biocides of smaller than 30 μm measured in accordance with the CIPAC 187 method.
For examination of the antifungal performance of the inventive mixtures the various mixtures prepared above were tested. The testing directly made in gypsum boards provides realistic and practically relevant data for evaluation. To achieve such data, gypsum boards were produced in the laboratory. For this purpose, a typical slurry recipe as given below for board production is used.
The gypsum slurry is formed by mixing the dry components and the wet components together. The slurry is then mixed to achieve a homogeneous consistency. The fungicide mixtures as prepared above are then incorporated into the wet gypsum slurry respectively (total amount of actives in ppm see table 2) by adding and thoroughly mixing. For sandwiching the gypsum core, untreated cardboard (without fungicide) with a grammage of appr. 180 g/m^2 was used and after assembly of the plate the hand sheets are dried.
The mould resistance of the gypsum board samples was evaluated according to the test method ASTM G 21-09. Following to this method, the manufactured gypsum boards as described above and after having been cut to an adequate size are placed on an agarplate and superficially are spoiled with fungal spores for a determined period of time of at the most 4 weeks. The respective total amount of actives in ppm based in gypsum/plaster ([…]) can be seen in the table.
Spore suspensions are produced for each fungi (spore concentrations of approximately 10^6/ml). Organisms which are included in ASTM G 21 comprise Aspergillus niger (ATCC 9642), Aureobasidium pullulans (ATCC 15233) Chaetomium globosum (ATCC 6205), Gliocladium virens (ATCC 6459) and Penicillium pinophilium (ATCC 11797) (as pure culture but also as mixed inoculum), however any other fungi species known to be able to grow in gypsum boards may be used in addition or instead. Mineral agar (according to ASTM G21 of 2009) was used as growth media in the agar plates. Before inoculation the gypsum board hand sheets are cut into pieces of appr. 5×5 cm.
For every concentration level, 3 test pieces are used in the test. Each sample is placed in a separate petri dish and then inoculated with the fungi mixture. The samples are then incubated at 28-30° C. for 28 days. Pre-reading of the samples may be performed at approximately 10 days after inoculation. The activity of the treatments may be assessed visually, using a rating system of 0-4 for growth inhibition of fungal growth.
Results: The results as recorded after 4 weeks testing at 28-30° C. according to the requirements of test method ASTM G 21 are summarized in table 2.

SMILES: Cc1cc(C)nc(Nc2ccccc2)n1 [PYM, pyrimethanil]
MIC (Fusarium solani): 1501 ppm
MIC (Fusarium solani; read-out: MIC): 1000 mg/L
MIC (Aspergillus niger): 500 ppm
MIC (Aspergillus niger; read-out: MIC): 250 mg/L

MIC (Fusarium solani; read-out: MIC): 250 mg/L
SMILES: c1ccc2[nH]c(-c3cscn3)nc2c1 [TBZ, thiabendazole]
Observed growth rating, Fungi Mix ([1]; 25 ppm on dry stucco in gypsum core): 4 (Heavy growth (60% to complete coverage))
Observed growth rating, Fungi Mix ([1]; 50 ppm on dry stucco in gypsum core): 4 (Heavy growth (60% to complete coverage))
Observed growth rating, Fungi Mix ([1]; 100 ppm on dry stucco in gypsum core): 4 (Heavy growth (60% to complete coverage))
Observed growth rating, Fungi Mix ([1]; 200 ppm on dry stucco in gypsum core): 4 (Heavy growth (60% to complete coverage))
Observed growth rating, Fungi Mix ([1]; 300 ppm on dry stucco in gypsum core): 3 (Medium growth (30 to 60%))
Control of fungi growth on gypsum board (interpretation of Table 2) ([1]; tested concentration range 25-300 ppm, comparison with TBZ/PYM mixtures): not good enough
